Data reported in ChEMBL document CHEMBL5512632, “Unlocking the potential of 1,4-naphthoquinones: A comprehensive review of their anticancer properties” (Eur J Med Chem, 2024).
Values after ≈ are worked out from the molar mass of the structure shown.

Experiments:
MDA-MB-231 = experiment: Antiproliferative activity against human MDA-MB-231 cells incubated for 48 hrs by MTT assay; type: functional, cell-based; conditions: MDA-MB-231, 48 h
HepG2 [1] = experiment: Antiproliferative activity against human HepG2 cells incubated for 48 hrs by MTT assay; type: functional, cell-based; conditions: HepG2, 48 h
A549 [2] = experiment: Antiproliferative activity against human A549 cells incubated for 48 hrs by MTT assay; type: functional, cell-based; conditions: A549, 48 h
HT-29 = experiment: Cytotoxicity against human HT-29 cells assessed as inhibition of cell growth incubated for 72 hrs by sulforhodamine B assay; type: functional, cell-based; conditions: HT-29, 72 h
MCF7 [3] = experiment: Cytotoxicity against human MCF7 cells assessed as inhibition of cell growth incubated for 72 hrs by sulforhodamine B assay; type: functional, cell-based; conditions: MCF7, 72 h
PC-3 [4] = experiment: Cytotoxicity against human PC-3 cells assessed as inhibition of cell growth incubated for 72 hrs by sulforhodamine B assay; type: functional, cell-based; conditions: PC-3, 72 h
HepG2 [5] = experiment: Cytotoxicity against human HepG2 cells by sulforhodamine B staining based spectrophotometric analysis; type: functional, cell-based
UACC-62 = experiment: Cytotoxicity against human UACC-62 cells by sulforhodamine B staining based spectrophotometric analysis; type: functional, cell-based
MCF7 [6] = experiment: Cytotoxicity against human MCF7 cells by sulforhodamine B staining based spectrophotometric analysis; type: functional, cell-based
PC-3 [7] = experiment: Cytotoxicity against human PC-3 cells by sulforhodamine B staining based spectrophotometric analysis; type: functional, cell-based
TK-10 = experiment: Cytotoxicity against human TK-10 cells by sulforhodamine B staining based spectrophotometric analysis; type: functional, cell-based
HeLa [8] = experiment: Cytotoxicity against human HeLa cells by sulforhodamine B staining based spectrophotometric analysis; type: functional, cell-based
SK-OV-3 [9] = experiment: Cytotoxicity against human SK-OV-3 cells assessed as reduction in cell growth incubated for 24 hrs by DAPI staining based fluorescence imaging analysis; type: functional; conditions: SK-OV-3, 24 h
OVCAR-5 = experiment: Cytotoxicity against human OVCAR-5 cells assessed as reduction in cell growth incubated for 24 hrs by DAPI staining based fluorescence imaging analysis; type: functional; conditions: OVCAR-5, 24 h
MGC-803 = experiment: Antiproliferative activity against human MGC-803 cells assessed as inhibition of cell growth incubated for 72 hrs by MTT reagent based microplate reader assay; type: functional; conditions: MGC-803, 72 h
HCT-15 [10] = experiment: Antiproliferative activity against human HCT-15 cells assessed as inhibition of cell growth incubated for 72 hrs by MTT reagent based microplate reader assay; type: functional; conditions: HCT-15, 72 h
Bel-7402 = experiment: Antiproliferative activity against human Bel-7402 cells assessed as inhibition of cell growth incubated for 72 hrs by MTT reagent based microplate reader assay; type: functional; conditions: Bel-7402, 72 h
MCF7 [11] = experiment: Antiproliferative activity against human MCF7 cells assessed as inhibition of cell growth incubated for 72 hrs by MTT reagent based microplate reader assay; type: functional; conditions: MCF7, 72 h
MCF7 [12] = experiment: Cytotoxicity against human MCF7 cells assessed as reduction in cell viability incubated for 48 hrs by MTT assay; type: functional, cell-based; conditions: MCF7, 48 h
HCT-15 [13] = experiment: Cytotoxicity against human HCT-15 cells assessed as reduction in cell viability incubated for 48 hrs by MTT assay; type: functional, cell-based; conditions: HCT-15, 48 h
DU-145 = experiment: Cytotoxicity against human DU-145 cells assessed as reduction in cell viability incubated for 48 hrs by MTT assay; type: functional, cell-based; conditions: DU-145, 48 h
PC-3 [14] = experiment: Cytotoxicity against human PC-3 cells assessed as reduction in cell viability incubated for 48 hrs by MTT assay; type: functional, cell-based; conditions: PC-3, 48 h
HeLa [15] = experiment: Cytotoxicity against human HeLa cells assessed as reduction in cell viability incubated for 48 hrs by MTT assay; type: functional, cell-based
[16] = Cytotoxicity against mouse JB6 Cl 41-5a cells incubated for 24 hrs by MTT reagent based microplate reader analysis; type: toxicity, cell-based
N2a = experiment: Cytotoxicity against mouse Neuro2a cells incubated for 24 hrs by MTT reagent based microplate reader analysis; type: functional, cell-based
HeLa [17] = experiment: Cytotoxicity against human HeLa cells incubated for 24 hrs by MTT reagent based microplate reader analysis; type: functional, cell-based
HCT-15 [18] = experiment: Cytotoxicity against human HCT-15 cells assessed as reduction in cell viability incubated for 72 hrs by MTT reagent based microplate reader assay; type: functional; conditions: HCT-15, 72 h
K562 = experiment: Cytotoxicity against human K562 cells assessed as reduction in cell viability incubated for 72 hrs by MTT reagent based microplate reader assay; type: functional; conditions: K562, 72 h
HCT-116 = experiment: Cytotoxicity against human HCT-116 cells assessed as reduction in cell viability incubated for 72 hrs by MTT reagent based microplate reader assay; type: functional; conditions: HCT-116, 72 h
HeLa [19] = experiment: Antiproliferative activity against human HeLa cells assessed as reduction in cell growth incubated for 24 hrs by MTT assay; type: functional, cell-based
A549 [20] = experiment: Antiproliferative activity against human A549 cells assessed as reduction in cell growth incubated for 24 hrs by MTT assay; type: functional, cell-based; conditions: A549, 24 h
[21] = Antiproliferative activity against human SK-RC-45 cells assessed as reduction in cell growth incubated for 24 hrs by MTT assay; type: functional, cell-based; conditions: SK-RC-45, 24 h
Glioblastoma cell line = experiment: Antiproliferative activity against human Glioblastoma cell line assessed as reduction in cell growth incubated for 24 hrs by MTT assay; type: functional, cell-based
A498 = experiment: Antiproliferative activity against human A498 cells assessed as reduction in cell growth incubated for 24 hrs by MTT assay; type: functional, cell-based; conditions: A498, 24 h
A549 [22] = experiment: Antiproliferative activity against human A549 cells assessed as reduction in cell growth incubated for 48 hrs by MTT reagent based microplate reader assay; type: functional; conditions: A549, 48 h
HepG2 [23] = experiment: Antiproliferative activity against human HepG2 cells assessed as reduction in cell growth incubated for 48 hrs by MTT reagent based microplate reader assay; type: functional; conditions: HepG2, 48 h
LNCaP = experiment: Antiproliferative activity against human LNCaP cells assessed as reduction in cell growth incubated for 48 hrs by MTT reagent based microplate reader assay; type: functional
SK-OV-3 [24] = experiment: Antiproliferative activity against human SK-OV-3 cells assessed as reduction in cell growth incubated for 48 hrs by MTT reagent based microplate reader assay; type: functional; conditions: SK-OV-3, 48 h
MCF7 [25] = experiment: Antiproliferative activity against human MCF7 cells assessed as reduction in cell growth incubated for 48 hrs by MTT reagent based microplate reader assay; type: functional; conditions: MCF7, 48 h
A549 [26] = experiment: Cytotoxicity against human A549 cells incubated for 24 hrs by MTT assay; type: functional, cell-based; conditions: A549, 24 h
NAMALVA [27] = experiment: Antitumor activity against human NAMALVA cells xenografted in NOD/SCID mouse assessed as reduction in tumor weight at 4 mg/kg,ip administration for 19 consecutive days; type: functional; parameters: scale not given: the % may be the effect or the level left
[28] = Cytotoxicity against human Lung adenocarcinoma cell line; type: functional, cell-based
NAMALVA [29] = experiment: Antiproliferative activity against human NAMALVA cells assessed as inhibition of cell growth incubated upto 24 hrs by MTT assay; type: functional, cell-based

Question: What does the source list for `CC1=C(CCNC(=O)c2ccccc2)C(=O)c2c(O)cccc2C1=O`?
Answer: IC50 (MDA-MB-231): 6.01 µM; IC50 (HepG2 [1]): 7.2 µM; IC50 (A549 [2]): 7.02 µM

Question: With `CN(C)N1C=C2C[C@@H](O[Si](C)(C)C(C)(C)C)[C@@H]3OC(C)(C)O[C@@H]3[C@H]2C2=C1C(=O)c1c(O)cccc1C2=O` as the compound, how does the IC50 (HT-29) read?
Answer: 0.2 µM

Question: And the IC50 (MCF7 [3])?
Answer: 16 µM

Question: And the IC50 (PC-3 [4])?
Answer: 0.7 µM

Question: For `O=C1C(CSc2ccc(F)cc2)=C(C2=C(CSc3ccc(F)cc3)C(=O)c3ccccc3C2=O)C(=O)c2ccccc21`, which IC50 (HepG2 [5]) is on record?
Answer: 8.75 µM

Question: What about the IC50 (UACC-62) of the same compound?
Answer: 2.98 µM

Question: And the IC50 (MCF7 [6])?
Answer: 3.24 µM

Question: And the IC50 (PC-3 [7])?
Answer: 6.98 µM

Question: And the IC50 (TK-10)?
Answer: 3.77 µM

Question: What about the IC50 (HeLa [8]) of the same compound?
Answer: 31.5 µM

Question: With `COc1cc(/C=C/C(=O)/C=C(O)/C=C/c2ccc(OC3=CC(=O)c4ccccc4C3=O)c(OC)c2)ccc1OC1=CC(=O)c2ccccc2C1=O` as the compound, how does the IC50 (SK-OV-3 [9]) read?
Answer: 5.35 µM

Question: What about the IC50 (OVCAR-5) of the same compound?
Answer: 4.05 µM

Question: For `CCCCCCCC(Oc1cc(OC)c(OC)c(OC)c1)c1ccc2c(c1)/C(=N\O)C=C/C2=N\O` (stereo not drawn), which IC50 (MGC-803) is on record?
Answer: 3.28 µM

Question: What about the IC50 (HCT-15 [10]) of the same compound?
Answer: 1.64 µM

Question: What about the IC50 (Bel-7402) of the same compound?
Answer: 4.21 µM

Question: And the IC50 (MCF7 [11])?
Answer: 6.94 µM

Question: Which IC50 (MCF7 [12]) does the source give for `CO/N=C1\C(c2cc3c(cc2OC)OCO3)=CC(=O)c2cc3c(cc21)OCO3` here?
Answer: 0.196 µM

Question: And the IC50 (HCT-15 [13])?
Answer: 0.055 µM

Question: And the IC50 (DU-145)?
Answer: 0.023 µM

Question: What about the IC50 (PC-3 [14]) of the same compound?
Answer: 0.319 µM

Question: What about the IC50 (HeLa [15]) of the same compound?
Answer: 0.104 µM

Question: Which IC50 at 24 h [16] does the source give for `O=C1C2=C(O[C@@H]3[C@@H](O)[C@@H](O)CO[C@H]3S2)C(=O)c2c(O)cccc21` here?
Answer: 0.7 µM

Question: And the IC50 (N2a)?
Answer: 1.4 µM

Question: And the IC50 (HeLa [17])?
Answer: 0.4 µM

Question: For `COc1cc(C(CCC(C)C)OC)c(OC)c2c1/C(=N/O)C=C/C2=N/O` (stereo not drawn), which IC50 (HCT-15 [18]) is on record?
Answer: 1.63 µM

Question: And the IC50 (K562)?
Answer: 1.25 µM

Question: What about the IC50 (HCT-116) of the same compound?
Answer: 2.47 µM

Question: For `O=C1C(O)=C(C(C2=C(O)C(=O)c3ccccc3C2=O)c2ccc(C(F)(F)F)cc2)C(=O)c2ccccc21`, which IC50 (HeLa [19]) is on record?
Answer: 34.3 µM

Question: And the IC50 (A549 [20])?
Answer: 29.6 µM

Question: And the IC50 [21]?
Answer: 30.3 µM

Question: And the IC50 (Glioblastoma cell line)?
Answer: 17.2 µM

Question: What about the IC50 (A498) of the same compound?
Answer: 27.5 µM

Question: With `CC1=C(C2CC(=O)N(C)C2=O)C(=O)c2c(O)cccc2C1=O` (stereo not drawn) as the compound, how does the IC50 (A549 [22]) read?
Answer: 6.11 µM

Question: And the IC50 (HepG2 [23])?
Answer: 7.13 µM

Question: And the IC50 (LNCaP)?
Answer: 3.62 µM

Question: And the IC50 (SK-OV-3 [24])?
Answer: 12.2 µM

Question: What about the IC50 (MCF7 [25]) of the same compound?
Answer: 4.91 µM

Question: For `CC(C)=CC[C@@H](O)C1=CC(=O)c2c(O)ccc(O)c2C1=O` [SHIKONIN], which IC50 (A549 [26]) is on record?
Answer: 3.52 µg/mL (≈ 12.2 µM)

Question: What about the Activity (NAMALVA [27]) of the same compound?
Answer: 50%

Question: What about the IC50 [28] of the same compound?
Answer: < 5 µM

Question: And the IC50 (NAMALVA [29])?
Answer: 193 µM
